From patent US10105357B2, “Indication of antibiotic drugs for preparation of cancer inhibition pharmaceutical composition” (LAUNX BIOMEDICAL CO., LTD., priority 2014, dated 2018)
Where a name gives a salt, the structure may show the parent alone. Read-outs that look alike come from different tables or passages of the source.

What was measured:
Type in all cases: cell-based, human
[1] = test system: cancer cell lines; assay: Cell viability analysis (WST-1) on cancer cell lines; conditions: drug 10 μM, 72 hours, WST-1; Table 3
[2] = test system: HI650 (Lung Adenocarcinoma); assay: Cell viability analysis, lung cancer HI650; conditions: Homo sapiens, NCI-H1650, 72 h
[3] = test system: A549 (Lung Adenocarcinoma); assay: Cell viability analysis, lung cancer A549; conditions: Homo sapiens, A549, 72 h
[4] = test system: AGS (Gastric Adenocarcinoma); assay: Cell viability analysis, gastric cancer AGS; conditions: Homo sapiens, 72 h
[5] = test system: MKN-45 (Gastric Adenocarcinoma); assay: Cell viability analysis, gastric cancer MKN-45; conditions: Homo sapiens, MKN-45, 72 h
[6] = test system: HepG2 (Hepatocellular Carcinoma); assay: Cell viability analysis, hepatic cancer HepG2; conditions: Homo sapiens, HepG2, 72 h
[7] = test system: LoVo (Colorectal Adenocarcinoma); assay: Cell viability analysis, colon cancer LoVo; conditions: Homo sapiens, LoVo, 72 h, read-out: cell viability (survival rate), LoVo, drug 10 μM, 72 hours, WST-1, OD450 nm
[8] = test system: A375 (Amelanotic Melanoma); assay: Cell viability analysis, skin cancer A375; conditions: Homo sapiens, A-375, 72 h
[9] = test system: HeLa (Cervix Adenocarcinoma); assay: Cell viability analysis, cervical cancer HeLa; conditions: Homo sapiens, HeLa, 72 h
[10] = test system: PC3 (p53−) (Prostate Adenocarcinoma); assay: Cell viability analysis, prostate cancer PC3; conditions: Homo sapiens, 72 h
[11] = test system: TSGH-8301 (Urinary Bladder Carcinoma); assay: Cell viability analysis, bladder cancer TSGH-8301; conditions: Homo sapiens, 72 h
[12] = test system: MCF7 (Mammary Gland, Adenocarcinoma); assay: Cell viability analysis, breast cancer MCF7; conditions: Homo sapiens, MCF7, 72 h
[13] = test system: HL-60 (Acute Promyelocytic Leukemia); assay: Cell viability analysis, leukemia HL-60; conditions: Homo sapiens, HL-60, 72 h
[14] = read-out: cell viability (survival rate), H1650, drug 10 μM, 72 hours, WST-1, OD450 nm
[15] = read-out: cell viability (survival rate), A549, drug 10 μM, 72 hours, WST-1, OD450 nm
[16] = read-out: cell viability (survival rate), AGS, drug 10 μM, 72 hours, WST-1, OD450 nm
[17] = read-out: cell viability (survival rate), MKN-45, drug 10 μM, 72 hours, WST-1, OD450 nm
[18] = read-out: cell viability (survival rate), HepG2, drug 10 μM, 72 hours, WST-1, OD450 nm
[19] = read-out: cell viability (survival rate), A375, drug 10 μM, 72 hours, WST-1, OD450 nm
[20] = read-out: cell viability (survival rate), HeLa, drug 10 μM, 72 hours, WST-1, OD450 nm
[21] = read-out: cell viability (survival rate), PC3, drug 10 μM, 72 hours, WST-1, OD450 nm
[22] = read-out: cell viability (survival rate), TSGH, drug 10 μM, 72 hours, WST-1, OD450 nm
[23] = read-out: cell viability (survival rate), MCF7, drug 10 μM, 72 hours, WST-1, OD450 nm
[24] = read-out: cell viability (survival rate), HL-60, drug 10 μM, 72 hours, WST-1, OD450 nm

Compound	inhibition effect on different cancer cell lines [1]	viability at 10 µM [2, 14]	viability at 10 µM [3, 15]	viability at 10 µM [4, 16]	viability at 10 µM [5, 17]	viability at 10 µM [6, 18]	viability at 10 µM [7]	viability at 10 µM [8, 19]	viability at 10 µM [9, 20]	viability at 10 µM [10, 21]	viability at 10 µM [11, 22]	viability at 10 µM [12, 23]	viability at 10 µM [13, 24]	further results
Cc1ncc([N+](=O)[O-])n1CC(C)O (stereo not drawn) [Secnidazole (Flagentyl), Secnidazole]	significant inhibition effect	46.8%	69.2%	78%	77.2%	99%	85.4%	117%	124%	81.6%	52.1%	81%	97.2%	
NCC[C@H](O)C(=O)N[C@@H]1C[C@H](N)[C@@H](O[C@H]2O[C@H](CN)[C@@H](O)[C@H](O)[C@H]2O)[C@H](O)[C@H]1O[C@H]1O[C@H](CO)[C@@H](O)[C@H](N)[C@H]1O [Amikacin hydrate]	significant inhibition effect						99%							viability at 10 µM ([2]; drug 10 μM, 72 hours, WST-1, OD450 nm, read-out: cell viability (survival rate), H1650): 87.7%; viability at 10 µM ([3]; drug 10 μM, 72 hours, WST-1, OD450 nm, read-out: cell viability (survival rate), A549): 111%; viability at 10 µM ([4]; drug 10 μM, 72 hours, WST-1, OD450 nm, read-out: cell viability (survival rate), AGS): 85.8%; viability at 10 µM ([5]; drug 10 μM, 72 hours, WST-1, OD450 nm, read-out: cell viability (survival rate), MKN-45): 104%; viability at 10 µM ([6]; drug 10 μM, 72 hours, WST-1, OD450 nm, read-out: cell viability (survival rate), HepG2): 88.4%; viability at 10 µM ([8]; drug 10 μM, 72 hours, WST-1, OD450 nm, read-out: cell viability (survival rate), A375): 87.7%; viability at 10 µM ([9]; drug 10 μM, 72 hours, WST-1, OD450 nm, read-out: cell viability (survival rate), HeLa): 96.3%; viability at 10 µM ([10]; drug 10 μM, 72 hours, WST-1, OD450 nm, read-out: cell viability (survival rate), PC3): 102%; viability at 10 µM ([11]; drug 10 μM, 72 hours, WST-1, OD450 nm, read-out: cell viability (survival rate), TSGH): 138%; viability at 10 µM ([12]; drug 10 μM, 72 hours, WST-1, OD450 nm, read-out: cell viability (survival rate), MCF7): 81.4%; viability at 10 µM ([13]; drug 10 μM, 72 hours, WST-1, OD450 nm, read-out: cell viability (survival rate), HL-60): 108%
CN(C/C=C/c1ccccc1)Cc1cccc2ccccc12 [Naftifine HCl]	significant inhibition effect	72.3%	127%	104%	58.5%	91.2%	86.3%	63.3%	80.6%	109%	79.6%	84.5%	93.2%	
